What was measured:
[1] = tested on: reconstructed epidermes; test: Lipid profile of treated reconstructed epidermes (densitometric analysis); assay type: cell-based; details: applied for 6 days at 1.10×10^−4 M; relative to the control and relative to ascorbic acid; not quantified
Protocol: The test described in Example 1 was repeated using various ascorbic acid derivatives, applied for 6 days at 1.10×10^-4 M on reconstructed […] subjected to 7 days of culture. The quantity of epidermal ceramides produced was, however, not quantified. Instead, a densitometric analysis was carried out using a CAMAG TLC® model Scanner 3 densitometric reader. The lipid profile of the treated […] determined, in which: The lipid content was determined of the sample of reconstructed epidermis either untreated (control), or treated with ascorbic acid (vitamin C) or with one of the ascorbic acid derivatives A to G indicated above.

[2] = tested on: skin equivalent marketed by EPISKIN; test: Effect on the synthesis of epidermal lipids in EPISKIN skin equivalent (HPTLC, densitometry); assay type: cell-based; details: for percentage increase in Ceramides 4-7 relative to the untreated control / percentage increase in cer. 6-7 relative to the untreated control: treated for five days
Protocol: Ascorbyl glucoside and ascorbic acid itself were tested on a skin equivalent marketed by EPISKIN (Lyon, France), after culturing the latter for 7 days. The culture and assay media were those contained in the kit marketed by the supplier. Each compound was tested at 5 μg/ml and 0.05 μg/ml (as vitamin C equivalent) in the culture medium. The reconstructed epidermes were treated for five days, the culture medium being replaced every 48 hours. The control consisted of an identical epidermis equivalent which was subjected to topical application of culture medium without the compound to be tested.
At the end of the incubation period, the epidermis equivalent was detached from its collagenic support. The preparation of the lipids of the epidermis equivalent and their analysis by HPTLC or high-performance thin-layer chromatography were carried out according to the technique and with the buffers described by M. Ponec (1991, Adv. Lipid Res., 24:83-117). At the end of the migration, densitometric analysis was carried out using a CAMAG TLC model Scanner 3 densitometric reader.
The results obtained are reported in the Table below as a percentage increase in ceramides 4, 5, 6 and 7 relative to the untreated control.

[3] = 0.05 μg/ml as vitamin C equiv. in culture medium
[4] = 5 μg/ml as vitamin C equiv. in culture medium

## COC(=O)COC1=C(OCC(=O)OC)C(C(O)CO)OC1=O (stereo not shown) [Compound E, ascorbyl 2,3-bis(methoxycarbonyl-methoxy) ether, reference compound]
[1]
  polar ceramide content of reconstructed epidermes / effect on epidermal lipogenesis: no significant effect on the epidermal lipogenesis

## O=C1O[C@H]([C@@H](O)CO)C(O)=C1O[C@H]1O[C@H](CO)[C@@H](O)[C@H](O)[C@H]1O [ascorbyl glucoside, 2-O-α-D-glucopyranosyl of L-ascorbic acid]
[2]; [3]
  percentage increase in Ceramides 4-7 relative to the untreated control: +11%
  percentage increase in cer. 6-7 relative to the untreated control: +65%
[2]; [4]
  percentage increase in Ceramides 4-7 relative to the untreated control: +40%
  percentage increase in cer. 6-7 relative to the untreated control: +59%
[2]; tested at the same concentration as ascorbic acid
  increase in the synthesis of the epidermal lipids (in particular of the most polar ceramides) compared with ascorbic acid: much higher for ascorbyl glucoside than for ascorbic acid

## O=C1O[C@H]([C@@H](O)CO)C(O)=C1OS(=O)(=O)[O-].O=C1O[C@H]([C@@H](O)CO)C(O)=C1OS(=O)(=O)[O-].[Ba+2] [Compound F, barium 2-ascorbyl sulfate, reference compound]
[1]
  polar ceramide content of reconstructed epidermes / effect on epidermal lipogenesis: no significant effect on the epidermal lipogenesis

## CC1(C)OCC(C2OC(=O)C(O[C@H]3O[C@H](CO)[C@@H](O)[C@H](O)[C@H]3O)=C2O)O1 (stereo partly drawn) [Compound A, 2-O-α-D-glucopyranosyl of (5,6-isopropylidene)ascorbic acid]
[1]
  polar ceramide content of reconstructed epidermes / effect on epidermal lipogenesis: significantly increases the polar ceramide content

## COc1cc(/C=C/C(=O)OC2=C(O)[C@@H]([C@@H](O)CO)OC2=O)ccc1O [Compound C, ascorbyl 2-ferulate]
[1]
  polar ceramide content of reconstructed epidermes / effect on epidermal lipogenesis: significantly increases the polar ceramide content

## CCCCCCCCCCCCCCCC(=O)OC1=C(O)C(C2COC(C)(C)O2)OC1=O (stereo not shown) [Compound D, (5,6-isopropylidene)ascorbyl 2-hexadecanoate]
[1]
  polar ceramide content of reconstructed epidermes / effect on epidermal lipogenesis: significantly increases the polar ceramide content

## O=C(/C=C/c1ccccc1)OC1=C(O)[C@@H]([C@@H](O)CO)OC1=O [Compound B, ascorbyl 2-cinnamate]
[1]
  polar ceramide content of reconstructed epidermes / effect on epidermal lipogenesis: significantly increases the polar ceramide content

## O=C1O[C@H]([C@@H](O)CO)C(O)=C1O [ascorbic acid]
[2]; [3]
  percentage increase in Ceramides 4-7 relative to the untreated control: +7%
  percentage increase in cer. 6-7 relative to the untreated control: +15%
[2]; [4]
  percentage increase in Ceramides 4-7 relative to the untreated control: +21%
  percentage increase in cer. 6-7 relative to the untreated control: −17%

## CC1(C)OCC(C2OC(=O)C(OC(=O)c3ccccc3)=C2O)O1 (stereo not shown) [Compound G, (5,6-isopropylidene)ascorbyl 2-benzoate]
[1]
  polar ceramide content of reconstructed epidermes / effect on epidermal lipogenesis: significantly increases the polar ceramide content

Reference: US20030176366A1, “Topical application of ascorbic acid compounds for augmenting the synthesis of epidermal ceramides” (SOCIETE L'OREAL S.A., priority 2000, published 2003)
